Test results from patent publication US20060013852A1, “Use of organic compounds” (priority 2002, published 2006).

Experiments:
[1] = system: Ang II induced angiogenic response; test: angiogenic response to locally delivered Ang II; format: in vivo; details: Ang II delivered locally in mice or rats
Text: (§1) 4. […] CYR61, an angiogenic factor, is induced by Angiotensin II (Ang II) in vascular cells and tissue. Likewise, Ang II induces an angiogenic reponse when Angil is delivered locally in mice or rats.

[2] = system: neointimal lesion formation; test: rat carotid artery balloon injury model; format: in vivo; details: local delivery to adventitia via Alzet minipump; early (9 days) and late (21-28 days) post-ballooning
Text: Rat carotid arteries are balloon injured using a method described by Clowes et al. Lab. Invest. 1983; 49; 208-215. […] A P<0.05 is considered statistically significant.

[3] = system: restenotic lesion formation; test: rabbit iliac stent model; format: in vivo, New Zealand White rabbit; details: for angiogenic response post-stenting: orally and locally via coated stent, 7 and 28 days post-stenting, vs placebo
Experimental: A combined angioplasty and stenting procedure is performed in New Zealand White rabbit iliac arteries. Iliac artery balloon injury is performed by inflating a 3.0×9.0 mm angioplasty balloon in the mid-portion of the artery followed by “pull-back” of the catheter for 1 balloon length. Balloon injury is repeated 2 times, and a 3.0×12 mm stent is deployed at 6 atm for 30 seconds in the iliac artery. Balloon injury and stent placement is then performed on the contralateral iliac artery in the same manner. A post-stent deployment angiogram is performed. […] The vascular section between the distal aorta and the proximal femoral arteries is excised and cleaned of periadventitial tissue. The stented section of artery is embedded in plastic and sections are taken from the proximal, middle, and distal portions of each stent. […] The vessel area is measured as the area within the EEL. Data are expressed as mean±SEM. […] A P<0.05 is considered statistically significant.
as §1

[4] = clinical study of aliskiren in dialysis patients after catheter insertion; format: in vivo, human; details: aliskiren 100 mg daily for 3 months; observation 6 months
Experimental: One hundred fifty prospective dialysis patients, who undergo successful insertion of an indwelling, large bore catheter, into a vein are selected for study. […] These drugs are administered for 3 consecutive months following catheter insertion.

| SMILES | inhibition of Ang II induced angiogenic response in vivo [1] | inhibition of neointimal lesions [2] | angiogenic response post-stenting [3] | mean neointimal thickness ([3]; vs placebo-treated animals) | percent stent stenosis ([3]; vs placebo-treated animals) | prevention or reduction of vascular access dysfunction [4] |
| --- | --- | --- | --- | --- | --- | --- |
| CCCCC(=O)N(Cc1ccc(-c2ccccc2-c2nnn[nH]2)cc1)[C@H](C(=O)O)C(C)C [valsartan] | potent inhibition | potent inhibition | markedly inhibits | reduced | reduced |  |
| COCCCOc1cc(C[C@@H](C[C@H](N)[C@@H](O)C[C@H](C(=O)NCC(C)(C)C(N)=O)C(C)C)C(C)C)ccc1OC [aliskiren, 2(S),4(S),5(S),7(S)-N-(3-amino-2,2-dimethyl-3-oxopropyl)-2,7-di(1-methylethyl)-4-hydroxy-5-amino-8-[4-methoxy-3-(3-methoxy-propoxy)phenyl]-octanamide] | potent inhibition | potent inhibition | markedly inhibits |  |  | efficacy |
